# Source: patent publication US10670605B2, “Cysteine reactive probes and uses thereof” (The Scripps Research Institute, priority 2015, dated 2020)
# Counter-ions that a name gives are not always drawn.
# What was measured:
# IDH1 = target: T1, IDH1 (Homo sapiens, UniProt O75874); test: IDH1 NADP assay; type: biochemical
# T1 construct: Full length cDNAs encoding for IDH1 (Open Biosystems, Clone ID: 3880331) and IMPDH2; His6 (C); made in house; host or cells: E. coli BL21(DE3)
# Protocol: To 25 μL of this mixture was added 1 μL of the indicated compound (25× stock solution in DMSO) and the lysates were incubated for 1 h at room temperature in clear 96 well plates (Corning® Costar®). […] Absorbance was measured for 45 minutes and the relative activities were calculated from the change in absorbance for the linear portion of the curve.
# PGPEPI C149 (Q9NXJ5) = PGPEPI C149 (Q9NXJ5) (Homo sapiens, UniProt Q9NXJ5); test: Competitive isoTOP-ABPP in situ; type: cell-based; conditions: fragment 4 at 100 μM, MDA-MB-231 cells
# Sequence of PGPEPI C149 (Q9NXJ5) (Q9NXJ5 whole entry, the tested form may be a part): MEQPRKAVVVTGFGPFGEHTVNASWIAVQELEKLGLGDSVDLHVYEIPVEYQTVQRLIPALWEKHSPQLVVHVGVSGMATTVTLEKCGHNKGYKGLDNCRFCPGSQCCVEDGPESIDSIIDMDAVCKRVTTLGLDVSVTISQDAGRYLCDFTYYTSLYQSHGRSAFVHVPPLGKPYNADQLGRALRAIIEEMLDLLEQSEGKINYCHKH
# RAI14 C973 (Q9P0K7) = RAI14 C973 (Q9P0K7) (Homo sapiens, UniProt Q9P0K7); test: Competitive isoTOP-ABPP in situ; type: cell-based; conditions: fragment 4 at 100 μM, MDA-MB-231 cells
# Sequence of RAI14 C973 (Q9P0K7) (Q9P0K7 whole entry, the tested form may be a part): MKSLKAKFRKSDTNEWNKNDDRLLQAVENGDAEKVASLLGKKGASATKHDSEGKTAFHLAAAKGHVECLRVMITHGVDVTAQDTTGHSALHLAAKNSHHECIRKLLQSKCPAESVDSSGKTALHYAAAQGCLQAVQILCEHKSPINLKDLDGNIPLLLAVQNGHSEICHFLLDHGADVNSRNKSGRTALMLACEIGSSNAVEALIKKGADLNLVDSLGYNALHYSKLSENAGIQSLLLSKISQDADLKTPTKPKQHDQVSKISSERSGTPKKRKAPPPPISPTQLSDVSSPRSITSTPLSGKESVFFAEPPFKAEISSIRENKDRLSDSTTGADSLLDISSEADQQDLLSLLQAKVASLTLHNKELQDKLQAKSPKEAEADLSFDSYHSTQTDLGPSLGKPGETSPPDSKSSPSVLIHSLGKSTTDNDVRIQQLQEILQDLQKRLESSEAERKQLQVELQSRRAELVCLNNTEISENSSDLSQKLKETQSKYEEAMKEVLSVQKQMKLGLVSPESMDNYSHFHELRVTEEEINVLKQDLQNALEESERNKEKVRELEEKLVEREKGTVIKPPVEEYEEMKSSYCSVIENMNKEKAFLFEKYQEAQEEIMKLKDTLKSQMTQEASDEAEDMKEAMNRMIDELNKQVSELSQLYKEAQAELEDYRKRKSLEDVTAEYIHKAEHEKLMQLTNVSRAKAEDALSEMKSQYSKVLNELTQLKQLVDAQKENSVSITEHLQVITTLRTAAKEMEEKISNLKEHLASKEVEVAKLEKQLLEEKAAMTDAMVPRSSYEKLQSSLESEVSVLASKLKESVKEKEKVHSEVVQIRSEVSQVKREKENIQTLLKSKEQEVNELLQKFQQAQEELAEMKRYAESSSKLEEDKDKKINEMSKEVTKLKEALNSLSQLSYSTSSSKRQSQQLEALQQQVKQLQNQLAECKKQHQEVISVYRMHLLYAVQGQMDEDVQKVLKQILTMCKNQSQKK
# PRMT1 = target: T2, PRMT1 (Homo sapiens, UniProt Q99873); test: PRMT1 in vitro methylation assay (histone 4, 3H-SAM); type: biochemical; conditions: pre-treatment with fragment 1 h
# T2 construct: Full length PRMT1 subcloned into pET45b (+) (Novagen) was previously generated by the Cravatt lab; inferred from Ni-NTA purification and the pET45b vector; made in house; host or cells: E. coli BL21(DE3)
# T2 sequence (Q99873 11-371 limits assumed): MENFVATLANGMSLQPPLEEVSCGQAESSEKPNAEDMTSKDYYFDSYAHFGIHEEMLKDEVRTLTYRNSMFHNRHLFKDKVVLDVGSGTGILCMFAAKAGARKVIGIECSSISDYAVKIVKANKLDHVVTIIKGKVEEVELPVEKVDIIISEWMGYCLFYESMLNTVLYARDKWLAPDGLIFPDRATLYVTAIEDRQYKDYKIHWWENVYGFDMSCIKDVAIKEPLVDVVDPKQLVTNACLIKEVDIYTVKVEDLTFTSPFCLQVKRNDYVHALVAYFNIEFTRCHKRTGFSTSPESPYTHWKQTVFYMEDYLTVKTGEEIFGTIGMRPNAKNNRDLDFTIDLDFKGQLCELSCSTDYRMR
# Protocol: PRMT1 assays were conducted as described in Weerapana et al. Nature 468:790-795 (2010). Recombinant human PRMT1 (0.85 μM, wild type or C101S mutant) in 25 μL methylation buffer (20 mM Tris, pH 8.0, 200 mM NaCl, 0.4 mM EDTA) was pre-incubated with indicated fragments for 1 h and methylation activity was monitored after addition of […] of recombinant histone 4 (NEB, M2504S) and ^3H-SAM (2 μCi). Reactions were further incubated for 60 min at ambient temperature and stopped with 4×SDS sample buffer. SDS-PAGE gels were fixed with 10% acetic acid/10% methanol (v/v), washed, and incubated with Amplify reagent (Amersham) before exposing to film at −80° C. for 3 days.
# RRAGC C377 (Q9HB90) = RRAGC C377 (Q9HB90) (Homo sapiens, UniProt Q9HB90); test: Competitive isoTOP-ABPP in situ; type: cell-based; conditions: fragment 2 at 200 μM, MDA-MB-231 cells
# Sequence of RRAGC C377 (Q9HB90) (Q9HB90 2-399 limits assumed): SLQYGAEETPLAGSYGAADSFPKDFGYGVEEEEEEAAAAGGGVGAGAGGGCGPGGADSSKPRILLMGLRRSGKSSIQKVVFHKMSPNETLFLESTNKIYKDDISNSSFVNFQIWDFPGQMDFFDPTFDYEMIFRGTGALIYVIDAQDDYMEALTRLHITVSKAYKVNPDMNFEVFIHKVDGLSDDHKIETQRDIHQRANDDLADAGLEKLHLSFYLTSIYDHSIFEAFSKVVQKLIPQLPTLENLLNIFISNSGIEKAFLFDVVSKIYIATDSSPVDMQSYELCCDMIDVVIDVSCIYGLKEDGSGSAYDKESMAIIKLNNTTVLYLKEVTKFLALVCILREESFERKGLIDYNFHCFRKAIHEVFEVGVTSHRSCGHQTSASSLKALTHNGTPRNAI
# Sequence of RRAGC C377 (Q9HB90) (Q7L523 whole entry partner, the tested form may be a part): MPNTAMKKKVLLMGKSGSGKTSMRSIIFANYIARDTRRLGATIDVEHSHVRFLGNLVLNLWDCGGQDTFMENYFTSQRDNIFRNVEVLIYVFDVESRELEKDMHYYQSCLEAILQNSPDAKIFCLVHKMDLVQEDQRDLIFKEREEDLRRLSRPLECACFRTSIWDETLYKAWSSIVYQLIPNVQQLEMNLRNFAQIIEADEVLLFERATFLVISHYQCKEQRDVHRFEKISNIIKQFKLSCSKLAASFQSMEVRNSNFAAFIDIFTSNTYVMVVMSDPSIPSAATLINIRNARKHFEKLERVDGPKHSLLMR
# RNF214 C655 (Q8ND24) = RNF214 C655 (Q8ND24) (Homo sapiens, UniProt Q8ND24); test: Competitive isoTOP-ABPP in situ; type: cell-based; conditions: fragment 2 at 200 μM, MDA-MB-231 cells
# Sequence of RNF214 C655 (Q8ND24) (Q8ND24 whole entry, the tested form may be a part): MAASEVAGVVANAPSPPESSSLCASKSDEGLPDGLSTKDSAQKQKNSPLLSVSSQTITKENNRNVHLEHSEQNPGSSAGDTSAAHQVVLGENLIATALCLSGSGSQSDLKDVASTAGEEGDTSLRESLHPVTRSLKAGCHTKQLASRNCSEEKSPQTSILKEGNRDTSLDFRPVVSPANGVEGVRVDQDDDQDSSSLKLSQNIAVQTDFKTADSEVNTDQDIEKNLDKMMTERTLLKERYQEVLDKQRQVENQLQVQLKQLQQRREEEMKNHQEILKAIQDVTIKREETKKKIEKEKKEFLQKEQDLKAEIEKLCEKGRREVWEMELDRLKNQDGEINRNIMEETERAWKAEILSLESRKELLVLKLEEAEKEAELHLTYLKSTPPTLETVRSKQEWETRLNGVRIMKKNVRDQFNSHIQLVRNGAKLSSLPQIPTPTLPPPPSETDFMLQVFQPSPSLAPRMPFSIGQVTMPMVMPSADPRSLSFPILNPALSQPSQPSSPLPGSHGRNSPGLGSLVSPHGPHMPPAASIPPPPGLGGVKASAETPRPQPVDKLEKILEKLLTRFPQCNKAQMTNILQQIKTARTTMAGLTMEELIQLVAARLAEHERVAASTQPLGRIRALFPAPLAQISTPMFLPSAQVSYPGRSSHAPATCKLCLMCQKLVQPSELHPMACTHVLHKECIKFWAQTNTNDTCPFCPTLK
# [1] = system: Nrf2(+/+) and (-/-) T cells; test: CD25 expression in Nrf2(+/+) and (-/-) T cells; type: cell-based, mouse; conditions: 24 h
# Protocol: C57BL/6J and Nrf2^-/- mice (Stock No:017009; […]: Jackson Labs) were bred and maintained in a closed breeding facility at The Scripps Research Institute and were 6-8 weeks old when used in experiments. All mice were used in accordance with guidelines from the Institutional Animal Care and Use Committee of The Scripps Research Institute. Spleens were harvested from female mice, perfused with collagenase, and incubated at 37° C. with 5% CO2 for 30 min. After this time, the spleens were homogenized. Cells that passed through a 100 μm cell strainer were collected and washed with RPMI. T cells were isolated from the splenocytes using the EasySepTM Mouse T cell Isolation Kit (19851; […]) according to manufacturer's instructions. 96-well plates were coated with anti-CD3 (1:200; BioXcell) and anti-CD28 (1:500; 302933; BioLegend) in PBS (100 μL/well) overnight at 4° C. The plates were then washed twice with PBS and to each well was added 500,000 primary T cells in 100 μL of RPMI supplemented with 10% FBS, glutamine, and Pen-Strep. Cells were then treated with 100 μL of media containing compound at the indicated concentrations (final well volume of 200 μL). Cells were left at 37° C. in a 5% CO2 incubator for the indicated periods of time and harvested by centrifugation (500 g, 8 min, 4° C.), followed by washing with PBS. […] Data was then analyzed with FlowJo software (Treestar Inc.). […]
# primary human T cells = test: T cell activation markers CD25 and CD69 (flow cytometry); type: cell-based
# Protocol: 96-well plates were coated with anti-CD3 (1:200; BioXcell) and anti-CD28 (1:500; 302933; BioLegend) in PBS (100 μL/well) overnight at 4° C. The plates were then washed twice with PBS and to each well was added 500,000 primary T cells in 100 μL of RPMI supplemented with 10% FBS, glutamine, and Pen-Strep. Cells were then treated with 100 μL of media containing compound at the indicated concentrations (final well volume of 200 μL). Cells were left at 37° C. in a 5% CO2 incubator for the indicated periods of time and harvested by centrifugation (500 g, 8 min, 4° C.), followed by washing with PBS.
# Flow cytometry analysis of cell surface antigens was performed with the following antibodies: Pacific Blue-conjugated anti-CD8 (1:25 dilution; clone RPA-T8; BD Biosciences), APC-conjugated anti-CD4 (1:25 dilution; clone RPA-T4; eBioscience), phycoerythrin-conjugated anti-CD25 (1:25 dilution; clone BC96; eBioscience or PC61; BioLegend (PKCθ studies)), FITC-conjugated anti-CD69 (1:25 dilution; clone FN50; eBioscience). All antibodies were diluted in 1% FBS in PBS, and 50 μL of the stain solution was added to each well. […] Flow cytometry acquisition was performed with BD FACSDivam-driven BD™ LSR II flow cytometer (Becton, Dickinson and Company). Data was then analyzed with FlowJo software (Treestar Inc.). Data represent mean±SE for four-five experiments per group.
# [2] = anti-CD3, anti-CD28 stimulation, 8 h
# T1 sequence (O75874 whole entry): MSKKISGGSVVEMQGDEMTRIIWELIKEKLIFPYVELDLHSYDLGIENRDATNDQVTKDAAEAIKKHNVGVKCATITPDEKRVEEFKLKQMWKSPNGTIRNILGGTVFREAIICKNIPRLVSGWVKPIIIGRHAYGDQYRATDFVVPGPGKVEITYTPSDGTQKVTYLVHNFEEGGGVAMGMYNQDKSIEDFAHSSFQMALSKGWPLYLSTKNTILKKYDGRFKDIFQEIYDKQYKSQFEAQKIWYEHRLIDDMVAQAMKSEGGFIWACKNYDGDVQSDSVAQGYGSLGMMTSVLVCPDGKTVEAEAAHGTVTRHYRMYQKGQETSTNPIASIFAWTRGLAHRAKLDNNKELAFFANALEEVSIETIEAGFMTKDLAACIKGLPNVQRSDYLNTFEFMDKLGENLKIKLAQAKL
compound,measurement,setting,value
O=C(CCl)N1CCC(C(O)(c2ccccc2)c2ccccc2)CC1 [compound 20],catalytic activity of WT-IDH1 (NADP+ to NADPH),IDH1,blocked in a concentration-dependent manner
COc1ccc(C2CC(c3cccs3)=NN2C(=O)CCl)cc1 (centres unmarked) [compound 4],isoTOP-ABPP reactivity profile (ratio) 4_100 μM_in-situ_231,PGPEPI C149 (Q9NXJ5),20.0
same,isoTOP-ABPP reactivity profile (ratio) 4_100 μM_in-situ_231,RAI14 C973 (Q9P0K7),8.7
Cn1cc(S(=O)(=O)N2CCOCC2)cc1C(=O)NC(=O)CCl [compound 11],PRMT1-catalyzed methylation of histone 4,PRMT1,inhibited
COc1ccc2c(c1)CCCN2C(=O)CCl [compound 2],isoTOP-ABPP reactivity profile (ratio) 2_200 μM_in-situ_231,RRAGC C377 (Q9HB90),3.3
same,isoTOP-ABPP reactivity profile (ratio) 2_200 μM_in-situ_231,RNF214 C655 (Q8ND24),6.5
"COC(=O)/C=C/C(=O)OC [DMF, dimethyl fumarate]",sensitivity of activation of Nrf2(+/+) and (-/-) T cells,[1],similarly sensitive
same,blockade of T cell activation,primary human T cells; 10 μM,marginal/negligible
same,blockade of T cell activation,primary human T cells; 25 μM,partial
same,blockade of T cell activation,primary human T cells; 50 μM,near-complete inhibition
same,expression of CD25,primary human T cells; [2],blocked
same,expression of CD69,primary human T cells; [2],blocked
same,inhibitory effect on T cell activation,primary human T cells; drug added six hours after stimulation,completely ablated
same,inhibitory effect on T cell activation,primary human T cells; drug added two hours after stimulation,reduced
